The record followed here is patent US11084829B2, “Ubiquitin-specific-processing protease 7 (USP7) modulators and uses thereof” (RAPT THERAPEUTICS, INC., priority 2018, dated 2021).

pIC50: −log10 of the molar value.

For this assay, the target named is USP7 (Homo sapiens, UniProt Q93009). Put plainly: USP7 inhibitory potency (IC50). The assay is classed as biochemical. On the procedure: Activity for compounds described herein is provided in Table 2, wherein potency levels are provided as follows: (Potency: USP7 IC50: A<0.01 μM; B=0.01-0.1 μM; C=>0.1 μM.
USP7, sequence (Q93009 whole entry): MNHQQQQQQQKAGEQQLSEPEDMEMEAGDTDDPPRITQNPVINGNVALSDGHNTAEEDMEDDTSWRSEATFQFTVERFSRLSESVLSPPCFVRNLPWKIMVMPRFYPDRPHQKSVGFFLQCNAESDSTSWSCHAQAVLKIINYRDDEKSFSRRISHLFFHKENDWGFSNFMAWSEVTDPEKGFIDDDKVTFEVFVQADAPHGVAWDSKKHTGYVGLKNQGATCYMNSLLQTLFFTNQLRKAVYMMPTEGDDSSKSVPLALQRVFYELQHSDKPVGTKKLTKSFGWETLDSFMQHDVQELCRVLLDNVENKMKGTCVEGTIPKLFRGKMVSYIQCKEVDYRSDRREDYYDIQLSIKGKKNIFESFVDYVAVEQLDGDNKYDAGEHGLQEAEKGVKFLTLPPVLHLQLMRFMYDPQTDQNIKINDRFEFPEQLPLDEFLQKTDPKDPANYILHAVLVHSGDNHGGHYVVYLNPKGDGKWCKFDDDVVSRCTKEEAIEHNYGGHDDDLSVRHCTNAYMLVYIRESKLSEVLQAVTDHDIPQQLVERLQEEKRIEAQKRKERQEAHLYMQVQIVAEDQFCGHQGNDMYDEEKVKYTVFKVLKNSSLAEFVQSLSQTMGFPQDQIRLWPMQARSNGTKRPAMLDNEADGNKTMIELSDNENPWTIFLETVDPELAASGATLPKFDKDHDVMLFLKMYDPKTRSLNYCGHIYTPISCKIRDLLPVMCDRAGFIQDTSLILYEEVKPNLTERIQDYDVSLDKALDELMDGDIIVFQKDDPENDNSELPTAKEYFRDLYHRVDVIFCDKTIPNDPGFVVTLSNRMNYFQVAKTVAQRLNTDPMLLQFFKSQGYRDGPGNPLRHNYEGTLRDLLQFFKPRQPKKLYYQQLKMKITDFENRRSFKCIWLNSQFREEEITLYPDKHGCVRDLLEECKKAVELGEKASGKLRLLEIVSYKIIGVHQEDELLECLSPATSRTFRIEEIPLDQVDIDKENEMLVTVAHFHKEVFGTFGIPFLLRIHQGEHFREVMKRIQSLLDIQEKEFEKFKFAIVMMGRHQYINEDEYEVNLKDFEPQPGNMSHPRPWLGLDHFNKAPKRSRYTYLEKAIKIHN

In general, pIC50 refers to the IC50 on a negative log10 scale, so that one unit is a factor of ten. The low end stands for a high IC50, the high end for a low IC50. Turning to `Cc1cc(Cl)cc(-c2ccnc3cc(CN4C(=O)C5CC5C4=O)sc23)c1C(=O)N1[C@@H](C)CNC[C@@H]1C` (stereo partly drawn) [Example 35, 3-((7-(5-chloro-2-((2S,6S)-2,6-dimethylpiperazine-1-carbonyl)-3-methylphenyl)thieno[3,2-b]pyridin-2-yl)methyl)-3-azabicyclo[3.1.0]hexane-2,4-dione], the negative-log IC50 (pIC50) was 7.00 to 8.00.
As for `Cc1cc(Cl)cc(-c2ccnc3cc(Cn4c(=O)ccn(CC(F)(F)F)c4=O)sc23)c1CN1CCCNCC1=O` [Example 256, 3-((7-(5-chloro-3-methyl-2-((2-oxo-1,4-diazepan-1-yl)methyl)phenyl)thieno[3,2-b]pyridin-2-yl)methyl)-1-(2,2,2-trifluoroethyl)pyrimidine-2,4(1H,3H)-dione], the figure is 7.00 to 8.00; as for `Cc1cc(Cl)cc(-c2ncnc3cc(Cn4c(=O)ccn(CC(F)(F)F)c4=O)sc23)c1CN1C[C@@H](C)NC[C@@H]1C` [Example 73, 3-((4-(5-chloro-2-(((2S,5R)-2,5-dimethylpiperazin-1-yl)methyl)-3-methylphenyl)thieno[3,2-d]pyrimidin-6-yl)methyl)-1-(2,2,2-trifluoroethyl)pyrimidine-2,4(1H,3H)-dione], more than 8.00.
To `COCc1cc2ncnc(-c3cc(Cl)cc(C)c3C[C@@H]3CNCC(C)(C)O3)c2s1` [Example 269, (R)-6-(4-chloro-2-(6-(methoxymethyl)thieno[3,2-d]pyrimidin-4-yl)-6-methylbenzyl)-2,2-dimethylmorpholine] belongs less than 7.00; to `Cc1cc(Cl)cc(-c2ccnc3cc(CN4C(=O)CCC4=O)sc23)c1CN1CCNC(C)C1` (centres unmarked) [Example 18, 1-((7-(5-chloro-3-methyl-2-((3-methylpiperazin-1-yl)methyl)phenyl)thieno[3,2-b]pyridin-2-yl)methyl)pyrrolidine-2,5-dione], more than 8.00.
The compound `Cc1cc(Cl)cc(-c2ncnc3cc(CN4C(=O)CN(CC(=O)O)C4=O)sc23)c1C[C@@H]1CNCCO1` [Example 261, (R)-2-(3-((4-(5-chloro-3-methyl-2-(morpholin-2-ylmethyl)phenyl)thieno[3,2-d]pyrimidin-6-yl)methyl)-2,4-dioxoimidazolidin-1-yl)acetic acid] gave a pIC50 of 7.00 to 8.00.
Compound `Cc1cc(Cl)cc(-c2ncnc3cc(CNC4(CCC(=O)O)CC4)sc23)c1CC1CNCC(C)(C)O1` (centres unmarked) [Example 202, 3-(1-(((4-(5-chloro-2-((6,6-dimethylmorpholin-2-yl)methyl)-3-methylphenyl)thieno[3,2-d]pyrimidin-6-yl)methyl)amino)cyclopropyl)propanoic acid] gave a pIC50 of 7.00 to 8.00.
To `CC1(C)CNCC(Cc2c(-c3ncnc4cc(CN5C(=O)C6CC6C5=O)sc34)cc(Cl)cc2C(F)F)O1` (centres unmarked) [Example 250, 3-((4-(5-chloro-3-(difluoromethyl)-2-((6,6-dimethylmorpholin-2-yl)methyl)phenyl)thieno[3,2-d]pyrimidin-6-yl)methyl)-3-azabicyclo[3.1.0]hexane-2,4-dione] belongs more than 8.00.
To `C[C@H]1CNC[C@H](C)N1Cc1c(Cl)cc(Cl)cc1-c1ccnc2cc(CN3C(=O)C4CC4C3=O)sc12` (stereo partly drawn) [Example 47, 3-((7-(3,5-dichloro-2-(((2S,6S)-2,6-dimethylpiperazin-1-yl)methyl)phenyl)thieno[3,2-b]pyridin-2-yl)methyl)-3-azabicyclo[3.1.0]hexane-2,4-dione] belongs more than 8.00.
To `Cc1cc(Cl)cc(-c2ncnc3cc(CN4C(=O)CC[C@@H]4C(F)F)sc23)c1CC1CNCC(C)(C)O1` (stereo partly drawn) [Example 230, (5R)-1-((4-(5-chloro-2-((6,6-dimethylmorpholin-2-yl)methyl)-3-methylphenyl)thieno[3,2-d]pyrimidin-6-yl)methyl)-5-(difluoromethyl)pyrrolidin-2-one] belongs more than 8.00; to `Cc1cc(Cl)cc(-c2ncnc3cc(CN4C(=O)CCN(C)C4=O)sc23)c1CC1CNCC2(CCC2)O1` (centres unmarked) [Example 222, 3-((4-(2-((5-oxa-8-azaspiro[3.5]nonan-6-yl)methyl)-5-chloro-3-methylphenyl)thieno[3,2-d]pyrimidin-6-yl)methyl)-1-methyldihydropyrimidine-2,4(1H,3H)-dione], more than 8.00.
